According to patent US8269019B2, “Inhibitors” (Probiodrug AG, priority 2010, dated 2012):

Target: hQC (Homo sapiens, UniProt Q16769)
Assay: QC inhibitor assay (hQC inhibition, Ki and IC50)
Type: biochemical
Description: All measurements were performed with a BioAssay Reader HTS-7000Plus for microplates (Perkin Elmer) at 30° C. QC activity was evaluated fluorometrically using H-Gln-βNA. The samples consisted of 0.2 mM fluorogenic substrate, 0.25 U pyroglutamyl aminopeptidase (Unizyme, Hørsholm, Denmark) in 0.2 M Tris/HCl, pH 8.0 containing 20 mM EDTA and an appropriately diluted aliquot of QC in a final volume of 250 μl. Excitation/emission wavelengths were 320/410 nm. The assay reactions were initiated by addition of glutaminyl cyclase. QC activity was determined from a standard curve of β-naphthylamine under assay conditions. One unit is defined as the amount of QC catalyzing the formation of 1 μmol pGlu-βNA from H-Gln-βNA per minute under the described conditions.
In a second fluorometric assay, QC was activity determined using H-Gln-AMC as substrate. Reactions were carried out at 30° C. utilizing the NOVOStar reader for microplates (BMG labtechnologies). The samples consisted of varying concentrations of the fluorogenic substrate, 0.1 U pyroglutamyl aminopeptidase (Qiagen) in 0.05 M Tris/HCl, pH 8.0 containing 5 mM EDTA and an appropriately diluted aliquot of QC in a final volume of 250 μl. Excitation/emission wavelengths were 380/460 nm. The assay reactions were initiated by addition of glutaminyl cyclase. QC activity was determined from a standard curve of 7-amino-4-methylcoumarin under assay conditions. The kinetic data were evaluated using GraFit sofware.
This novel assay was used to determine the kinetic parameters for most of the QC substrates. QC activity was analyzed spectrophotometrically using a continuous method, that was derived by adapting a previous discontinuous assay (Bateman, R. C. J. 1989 J Neurosci Methods 30, 23-28) utilizing glutamate dehydrogenase as auxiliary enzyme. Samples consisted of the respective QC substrate, 0.3 mM NADH, 14 mM α-Ketoglutaric acid and 30 U/ml glutamate dehydrogenase in a final volume of 250 μl. Reactions were started by addition of QC and persued by monitoring of the decrease in absorbance at 340 nm for 8-15 min.
The initial velocities were evaluated and the enzymatic activity was determined from a standard curve of ammonia under assay conditions. All samples were measured at 30° C., using either the SPECTRAFIuor Plus or the Sunrise (both from TECAN) reader for microplates. Kinetic data was evaluated using GraFit software.
For inhibitor testing, the sample composition was the same as described above, except of the putative inhibitory compound added. For a rapid test of QC-inhibition, samples contained 4 mM of the respective inhibitor and a substrate concentration at 1 KM. For detailed investigations of the inhibition and determination of Ki-values, influence of the inhibitor on the auxiliary enzymes was investigated first. In every case, there was no influence on either enzyme detected, thus enabling the reliable determination of the QC inhibition. The inhibitory constant was evaluated by fitting the set of progress curves to the general equation for competitive inhibition using GraFit software.

Sequence of hQC (Q16769 29-361): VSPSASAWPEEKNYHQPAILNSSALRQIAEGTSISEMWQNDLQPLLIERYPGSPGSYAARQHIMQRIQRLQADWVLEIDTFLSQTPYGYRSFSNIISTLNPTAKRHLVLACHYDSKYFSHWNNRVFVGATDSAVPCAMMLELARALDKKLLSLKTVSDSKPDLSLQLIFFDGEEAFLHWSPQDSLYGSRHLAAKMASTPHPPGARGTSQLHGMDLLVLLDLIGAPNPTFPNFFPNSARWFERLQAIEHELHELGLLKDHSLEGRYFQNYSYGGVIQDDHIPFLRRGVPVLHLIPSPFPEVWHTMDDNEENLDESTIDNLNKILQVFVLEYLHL

| SMILES | IC50 | Ki |
| --- | --- | --- |
| COC1=C(C)C(c2cccc(Cl)c2Cl)N(c2ccc3[nH]cnc3c2)C1=O (stereo not drawn) [Example 17, 1-(1H-Benzo[d]imidazol-6-yl)-5-(2,3-dichlorophenyl)-3-methoxy-4-methyl-1H-pyrrol-2(5H)-one] | 557 nM | 46.6 nM |
| COC1=C(C)[C@@H](c2cccc(F)c2F)N(c2ccc3nc[nH]c3c2)C1=O (single isomer, unassigned) [Example 10] | 169 nM | 32.3 nM |
| COC1=C(c2ccccc2)C(c2cc(F)cc(F)c2F)N(c2ccc3[nH]cnc3c2)C1=O (stereo not drawn) [Example 5, 1-(1H-Benzo[d]imidazol-5-yl)-5-(2,3,5-trifluorophenyl)-3-methoxy-4-phenyl-1H-pyrrol-2(5H)-one] | 317 nM | 54.9 nM |
| COC1=C(C)C(c2cccc(F)c2F)N(c2ccc3nc[nH]c3c2)C1=O (stereo not drawn) [Example 8, 1-(1H-Benzo[d]imidazol-6-yl)-5-(2,3-difluorophenyl)-3-methoxy-4-methyl-1H-pyrrol-2(5H)-one] | 117 nM | 20.9 nM |
| COC1=C(C)[C@H](c2cccc(F)c2F)N(c2ccc3nc[nH]c3c2)C1=O (single isomer, unassigned) [Example 9] | 18.7 nM | 4.7 nM |
| COC1=C(C)C(C2CCC(c3ccccc3)CC2)N(c2ccc3nc[nH]c3c2)C1=O (stereo not drawn) [Example 32, 1-(1H-Benzo[d]imidazol-6-yl)-3-methoxy-4-methyl-5-(4-phenylcyclohexyl)-1H-pyrrol-2(5H)-one] | 821 nM | 164 nM |

Further lines, results first:

| IC50 | Ki | SMILES |
| --- | --- | --- |
| 195 nM | 45.3 nM | COC1=C(C)C(c2ccc(C3CCCCC3)cc2)N(c2ccc3nc[nH]c3c2)C1=O (stereo not drawn) [Example 25, 1-(1H-Benzo[d]imidazol-6-yl)-5-(4-cyclohexylphenyl)-3-methoxy-4-methyl-1H-pyrrol-2(5H)-one] |
| 221 nM | 18.7 nM | COC1=C(C)C(c2ccc(C3CCC(N4CCOCC4)CC3)cc2)N(c2ccc3nc[nH]c3c2)C1=O (stereo not drawn) [Example 29, 1-(1H-Benzo[d]imidazol-6-yl)-3-methoxy-4-methyl-5-(4-(4-morpholinocyclo-hexyl)phenyl)-1H-pyrrol-2(5H)-one] |
| 292 nM | 36.2 nM | COC1=C(C)C(c2ccc(C3CCC(F)(F)CC3)cc2)N(c2ccc3nc[nH]c3c2)C1=O (stereo not drawn) [Example 26, 1-(1H-Benzo[d]imidazol-6-yl)-5-(4-(4,4-difluorocyclohexyl)phenyl)-3-methoxy-4-methyl-1H-pyrrol-2(5H)-one] |
